Laboratory results reported in patent US20010053796A1, “Delta-aminolevulinic acid for prevention and treatment of infection microorganisms and parasite” (priority 2000, published 2001).

What was measured:
Streptococcus sp. [1] = assay: Prevention effect for artificial infection (abdominal injection of bacteria); format: in vivo, Sebastes schlegeli; conditions: for Mortality during Cultivation: dead of 20 fish
Experimental: (§1) The water temperature was maintained at 20° C. (±2° C. ) throughout the experiment. […]
Bastardhalibut and Sebastes schlegeli were infected by Streptococcus sp. by abdominal injection with the same method of fish breeding, δ-aminolevulinic acid treatment and artificial infection carried out in Experiment 1 and 2. Each experimental fish was moved to fish tanks for monitoring and monitored for mortality according to infection for 2 weeks. […] The treated group, with δ-aminolevulinic acid by tank administration method and oral administration method, has shown viability of higher than 65%.

Staphylococcus epidermis [2] = assay: as above; format: in vivo, Bastardhalibut; conditions: for Mortality during Cultivation: dead of 20 fish
Experimental: as §1
Bastardhalibut and Sebastes schlegeli were infected by […] Staphylococcus epidermis through abdominal injection with the same method of fish breeding; δ-aminolevulinic acid treatment and artificial carried out in Experiment 1 and 2. Each experimental fish was moved to fish tanks for monitoring and monitored for mortality according to infection for 2 weeks. […] The treated group, with δ-aminolevulinic acid by tank administraion method and oral administration method, has shown high viability.

Edwardsiella tarda = assay: Treatment effect of infected fry by digestion in breeding water; format: in vivo, Bastardhalibut; conditions: 50 fish
Experimental: (§2) To be used as experimental fish in this example, fry of Bastardhalibut and Sebastes schlegeli (mean body weight 2 g), 50 per each breeding tank, were preliminary-bred for 1 week and stabilized. […] The artificial infection methods were carried out by the digestion method. Pathogenic organisms were applied into fish tanks and digested in seawater, wherein the concentration of organisms has adjusted to 10^4 CFU/mL for an hour, and infected. Treatment conditions are as follows. After artificial infection. Infected fishes were moved to fish tanks and kept in the infection period for 3 days. On the fourth day of infection, 0.1, 1.0, 5 and 10 ppm δ-aminolevulinic acid were introduced to use as breeding water. Fish was bred in aerobic condition for 1˜24 hours without exchanging water and then, bred for 2 weeks after exchanging with clean seawater. Then, they were monitored to check for the mortality of fish according to infection. In the control groups, after each bacteria were identically introduced through the digestion method, mortality of Bastardhalibut and Sebastes schlegeli according to bacteria infection was identified while breeding with non-treated condition of δ-aminolevulinic acid. As a result of this experiment, δ-aminolevulinic acid-treated groups have shown high viability in both Bastardhalibut (Table 12˜Table 15) and Sebastes schlegeli (Table 16˜Table 19).

Pseudomonas sp. = assay: as above; format: in vivo, Bastardhalibut; conditions: 50 fish
Experimental: as §2

Staphylococcus epidermis [3] = assay: as above; format: in vivo, Bastardhalibut; conditions: 50 fish
Experimental: as §2

Staphylococcus sp. = assay: as above; format: in vivo, Bastardhalibut; conditions: 50 fish
Experimental: as §2

Streptococcus sp. [4] = assay: as above; format: in vivo, Bastardhalibut; conditions: 50 fish
Experimental: as §2

Vibrio anguillarum = assay: as above; format: in vivo, Bastardhalibut; conditions: 50 fish
Experimental: as §2

Sebastes schlegeli = assay: Breeding before Scutica artificial infection (mortality during cultivation); format: in vivo; conditions: 1˜3 weeks; for Mortality during Cultivation: dead of 20 fish
Experimental: The water temperature was maintained at 20° C. (±2° C.) throughout the experiment.

Scutica = assay: Application to Scutica-infected seedling nursery; format: in vivo, flatfish; conditions: 30 ppm formalin day 1, then 1 ppm for 2 hrs on days 2 and 3
Experimental: Seedling was produced in flatfish seedling nursery and flatfish fry in seedling nursery, where marketing had stopped due to the infection of Scutica in a marketing stage (the length 5˜6 cm). They were treated with δ-aminolevulinic acid made by the inventors. Seriously infected fish were collected from seedling nursery and contained in water tanks and treated. On the first day, the fish were treated with 30 ppm formalin and, on the second and third day, were treated δ-aminolevulinic acid at concentration of 1 ppm for 2 hrs. […] Cultivation in a water tank of a fish farm where the ozone treatment system, which can control pathogenic organisms in seawater for cultivating, was applied has shown possibility of normal cultivation.

[5] = digestion 0.1 ppm from 4th day of infection, Bastard halibut fry
[6] = digestion 1.0 ppm from 4th day of infection, Bastardhalibut fry
[7] = digestion 5.0 ppm from 4th day of infection, in Bastard halibut
[8] = digestion 10 ppm from 4th day of infection, Bastardhalibut fry
[9] = digestion 10 ppm from 4th day of infection
[10] = digestion 5.0 ppm from 4th day of infection

In the case of `NCC(=O)CCC(=O)O` [δ-aminolevulinic acid], the Viability (Streptococcus sp. [1]; orally, 0.1 ppm in feed) was 70%, the “Mortality during Cultivation” value (Streptococcus sp. [1]; orally, 0.1 ppm in feed) was 6 and the Viability (Streptococcus sp. [1]; orally, 1.0 ppm in feed) was 70%. The “Mortality during Cultivation” value (Streptococcus sp. [1]; orally, 1.0 ppm in feed) was 6, the Viability (Streptococcus sp. [1]; orally, 10 ppm in feed) was 85% and the “Mortality during Cultivation” value (Streptococcus sp. [1]; orally, 10 ppm in feed) was 3. For the same molecule, the Viability (Streptococcus sp. [1]; orally, 100 ppm in feed) was 90%, the “Mortality during Cultivation” value (Streptococcus sp. [1]; orally, 100 ppm in feed) was 2 and the Viability (Streptococcus sp. [1]; to fish tanks, 0.01 ppm) was 60%. For the same molecule, the “Mortality during Cultivation” value (Streptococcus sp. [1]; to fish tanks, 0.01 ppm) was 8, the Viability (Streptococcus sp. [1]; to fish tanks, 0.1 ppm) was 65% and the “Mortality during Cultivation” value (Streptococcus sp. [1]; to fish tanks, 0.1 ppm) was 7. The Viability (Streptococcus sp. [1]; to fish tanks, 1.0 ppm) was 85%, the “Mortality during Cultivation” value (Streptococcus sp. [1]; to fish tanks, 1.0 ppm) was 3 and the Viability (Streptococcus sp. [1]; to fish tanks, 10 ppm) was 80%. For the same molecule, the “Mortality during Cultivation” value (Streptococcus sp. [1]; to fish tanks, 10 ppm) was 4, the Viability (Staphylococcus epidermis [2]; orally, 0.1 ppm in feed) was 50% and the “Mortality during Cultivation” value (Staphylococcus epidermis [2]; orally, 0.1 ppm in feed) was 10. The Viability (Staphylococcus epidermis [2]; orally, 1.0 ppm in feed) was 55%, the “Mortality during Cultivation” value (Staphylococcus epidermis [2]; orally, 1.0 ppm in feed) was 9 and the Viability (Staphylococcus epidermis [2]; orally, 10 ppm in feed) was 70%. The “Mortality during Cultivation” value (Staphylococcus epidermis [2]; orally, 10 ppm in feed) was 6, the Viability (Staphylococcus epidermis [2]; orally, 100 ppm in feed) was 80% and the “Mortality during Cultivation” value (Staphylococcus epidermis [2]; orally, 100 ppm in feed) was 4. The Viability (Staphylococcus epidermis [2]; to fish tanks, 0.01 ppm) was 55%, the “Mortality during Cultivation” value (Staphylococcus epidermis [2]; to fish tanks, 0.01 ppm) was 9 and the Viability (Staphylococcus epidermis [2]; to fish tanks, 0.1 ppm) was 65%. For the same molecule, the “Mortality during Cultivation” value (Staphylococcus epidermis [2]; to fish tanks, 0.1 ppm) was 7, the Viability (Staphylococcus epidermis [2]; to fish tanks, 1.0 ppm) was 65% and the “Mortality during Cultivation” value (Staphylococcus epidermis [2]; to fish tanks, 1.0 ppm) was 7. The Viability (Staphylococcus epidermis [2]; to fish tanks, 10 ppm) was 75%, the “Mortality during Cultivation” value (Staphylococcus epidermis [2]; to fish tanks, 10 ppm) was 5 and the Viability (Edwardsiella tarda; [5]) was 54%. The Viability (Edwardsiella tarda; [6]) was 76%, the Viability (Edwardsiella tarda; [7]) was 86% and the Viability (Edwardsiella tarda; [8]) was 84%. For the same molecule, the Viability (Pseudomonas sp.; [5]) was 50%, the Viability (Pseudomonas sp.; [6]) was 70% and the Viability (Pseudomonas sp.; [7]) was 80%. The Viability (Pseudomonas sp.; [9]) was 84%, the Viability (Staphylococcus epidermis [3]; [5]) was 42% and the Viability (Staphylococcus epidermis [3]; [6]) was 66%. For the same molecule, the Viability (Staphylococcus epidermis [3]; [7]) was 80%, the Viability (Staphylococcus epidermis [3]; [9]) was 84% and the Viability (Staphylococcus sp.; [5]) was 54%. It also gave a Viability (Staphylococcus sp.; [6]) of 66%, a Viability (Staphylococcus sp.; [10]) of 84% and a Viability (Staphylococcus sp.; [8]) of 84%. It also gave a Viability (Streptococcus sp. [4]; [5]) of 46%, a Viability (Streptococcus sp. [4]; [6]) of 64% and a Viability (Streptococcus sp. [4]; [7]) of 84%. It also gave a Viability (Streptococcus sp. [4]; [8]) of 90%, a Viability (Vibrio anguillarum; [5]) of 56% and a Viability (Vibrio anguillarum; [6]) of 66%. The Viability (Vibrio anguillarum; [10]) was 84%, the Viability (Vibrio anguillarum; [8]) was 80% and the Viability (Sebastes schlegeli; oral (100 ppm per feed 1 kg)) was 100%. The “Mortality during Cultivation” value (Sebastes schlegeli; oral (100 ppm per feed 1 kg)) was 0, the Viability (Sebastes schlegeli; to fish tanks (10 ppm)) was 100% and the “Mortality during Cultivation” value (Sebastes schlegeli; to fish tanks (10 ppm)) was 0. The “examination of infection through sampling of fish body” value (Scutica; after 2 weeks of cultivation) was “no infection by Scutica” and the “vitality of treated fish” value (Scutica; after 1 day of treatment) was “highly improved”.
